Results on nine compounds are retold here after patent publication US20260242368A1, “GBA1 AND GCS DUAL MODULATOR” (ONO PHARMACEUTICAL CO., LTD., priority 2023, published 2026).

In general, pIC50 refers to −log10 of the IC50, conventionally taken in molar units.

pIC50: −log10 of the molar value.

The target in one assay is T1, human GBA2 (Homo sapiens, UniProt Q9HCG7).
T1 construct: The complete open reading frames for GBA2 (human NM_020944.2) was amplified from human tissue; made in house; host or cells: HEK293T cells, transiently transfected (pCDNA-3.1); washed membrane pellet used as crude enzyme
T1 sequence (Q9HCG7 1-927): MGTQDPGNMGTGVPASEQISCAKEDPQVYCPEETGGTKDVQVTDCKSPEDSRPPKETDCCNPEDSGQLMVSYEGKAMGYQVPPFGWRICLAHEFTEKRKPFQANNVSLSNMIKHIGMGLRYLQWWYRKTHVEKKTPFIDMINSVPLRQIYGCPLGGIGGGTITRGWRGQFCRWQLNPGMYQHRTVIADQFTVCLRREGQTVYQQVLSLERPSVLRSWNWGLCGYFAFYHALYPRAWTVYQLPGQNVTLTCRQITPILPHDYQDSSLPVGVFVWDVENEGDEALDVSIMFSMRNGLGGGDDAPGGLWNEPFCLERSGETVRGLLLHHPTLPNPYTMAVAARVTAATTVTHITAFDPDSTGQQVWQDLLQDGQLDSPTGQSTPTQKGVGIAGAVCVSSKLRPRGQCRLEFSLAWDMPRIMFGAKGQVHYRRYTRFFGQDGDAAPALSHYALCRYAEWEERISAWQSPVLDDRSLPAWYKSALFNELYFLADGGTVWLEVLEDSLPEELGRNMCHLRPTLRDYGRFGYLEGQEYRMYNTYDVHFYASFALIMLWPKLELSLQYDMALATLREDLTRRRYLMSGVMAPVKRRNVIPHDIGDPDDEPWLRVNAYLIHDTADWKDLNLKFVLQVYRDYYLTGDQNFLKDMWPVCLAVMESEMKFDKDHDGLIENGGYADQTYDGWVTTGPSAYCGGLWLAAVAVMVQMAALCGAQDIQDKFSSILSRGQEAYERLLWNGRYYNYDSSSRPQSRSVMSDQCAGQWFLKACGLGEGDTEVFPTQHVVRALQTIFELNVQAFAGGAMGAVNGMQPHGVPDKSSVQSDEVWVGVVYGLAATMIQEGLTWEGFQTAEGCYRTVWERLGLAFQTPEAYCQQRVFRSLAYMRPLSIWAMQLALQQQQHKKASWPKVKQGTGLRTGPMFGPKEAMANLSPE
Description: Evaluation of human GBA2 enzyme inhibitory activity (GBA2-rich membrane suspension, 4-MUG). The class given is biochemical. The following applies: GBA2-rich membrane of transfected HEK293T cells, CBE preincubation, read-out: GBA2 inhibition IC50.

For assay [1], the target named is T2, recombinant GBA enzyme (human GBA1) (Homo sapiens, UniProt P04062).
T2 sequence (P04062 40-536): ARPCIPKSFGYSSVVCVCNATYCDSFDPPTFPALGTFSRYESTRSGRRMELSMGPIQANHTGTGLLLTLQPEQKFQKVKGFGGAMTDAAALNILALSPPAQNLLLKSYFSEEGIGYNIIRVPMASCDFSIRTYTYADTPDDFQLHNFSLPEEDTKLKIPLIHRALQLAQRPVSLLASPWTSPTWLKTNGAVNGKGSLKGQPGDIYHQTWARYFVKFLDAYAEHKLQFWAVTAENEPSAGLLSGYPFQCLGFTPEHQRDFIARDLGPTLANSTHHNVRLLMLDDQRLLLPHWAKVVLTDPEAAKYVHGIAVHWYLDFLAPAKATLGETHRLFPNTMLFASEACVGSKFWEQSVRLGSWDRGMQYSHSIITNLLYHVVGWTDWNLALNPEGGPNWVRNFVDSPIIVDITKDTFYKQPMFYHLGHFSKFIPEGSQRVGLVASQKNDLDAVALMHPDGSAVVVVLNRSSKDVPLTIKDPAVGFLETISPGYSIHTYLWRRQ
Description: Evaluation of human GBA1 enzyme inhibitory activity (4-MUG substrate). Format: biochemical. The following applies: pH5.2, 37° C. 60 min, read-out: GBA1 inhibition IC50.

The target of a further assay is T3, Human GCS (Homo sapiens, UniProt Q16739).
T3 construct: The lysate of HL60 cells were used in this assay; endogenous in cells; host or cells: HL60 cells (lysate supernatant)
T3 sequence (Q16739 1-394): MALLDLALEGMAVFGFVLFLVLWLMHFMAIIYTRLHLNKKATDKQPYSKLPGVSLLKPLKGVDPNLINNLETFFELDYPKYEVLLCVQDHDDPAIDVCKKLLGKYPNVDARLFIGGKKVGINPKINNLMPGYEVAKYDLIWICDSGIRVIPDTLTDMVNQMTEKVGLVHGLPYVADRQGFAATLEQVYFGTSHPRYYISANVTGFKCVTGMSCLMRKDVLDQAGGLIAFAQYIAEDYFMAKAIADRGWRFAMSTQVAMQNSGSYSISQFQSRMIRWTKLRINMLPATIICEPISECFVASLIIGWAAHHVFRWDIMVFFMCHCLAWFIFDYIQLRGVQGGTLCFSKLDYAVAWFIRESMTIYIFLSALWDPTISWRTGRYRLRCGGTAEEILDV
As to the kind of experiment: Evaluation of human GCS enzyme inhibitory activity (HL60 cell lysate, NBD-C6 ceramide, LC/MSMS). Particulars: 37° C. 90 min, read-out: GCS inhibition IC50. Format: biochemical.

Assay [2] has as its system GBA1 (β-glucocerebrosidase mutation of N307S) in Gaucher's cell line GM00372. Description: Evaluation of human GBA1 cellular activity (Gaucher's cell line, 6 days treatment). Format: cell-based. The following applies: GM00372 cells, DMSO-treated cells as negative control, normalized to protein. As to the method:
The Gaucher's cell line with β-glucocerebrosidase mutation of N307S (Coriell Institute, Cat. GM00372) was cultured and expanded using EMEM with 15% FBS. The cell was passaged at least twice and could be used until the 20th passages. The cells were seeded at the density of 1.25×10^4 cells/well in 96-well plate. After cell culturing overnight, 50 μL of cell medium was discarded, and 50 μL of the diluted compound was added (with 0.3% DMSO). The cells were treated with compound for 6 days. On day 6, the cells were washed once with HBSS and incubated in HBSS for 3 h followed by lysing using 30 μL assay buffer (pH5.2 Mcllvaine buffer supplemented with 0.25% sodium taurocholate, 0.5% Triton X-100 and protease cocktail inhibitor) for 5 min at 4° C. on shaker. For GBA enzymatic assay, 15 μL of cell lysate was incubated with 5 μL of 4-MUG (6 mmol/L) for 60 min in 384 well format followed by adding 20 μL of stop solution (1 mmol/L glycine solution adjusted to pH10 using 1 mol/L NaOH). The reaction product of 4-MU was measured (excitation 355 nm, emission 450 nm) on fluorescence spectrophotometer. For the protein quantification, 4 μL of cell lysate was mixed with 36 μL of Pierce BCA reagents for 30 min. The protein was detected according to the manufacturer's instructions. Enzyme activity in cell lysate was normalized to protein concentration. The blank included substrate and assay buffer followed by addition of stop solution. Enzyme activity in cells treated with DMSO was used as a negative control, and results were represented as the percent change in enzyme activity in cells treated with each compound.

Consider `CCOc1cc(COC[C@@H](F)CCCCN2C[C@H](O)[C@@H](O)[C@H](O)[C@@H](O)C2)ccc1F` (single isomer, unassigned) [Example 72], for which, at human GBA2, the negative logarithm of the IC50 (pIC50) was < 5.00. Besides, in assay [1], the pIC50 was 5.92. Besides, the negative logarithm of the IC50 (pIC50) on Human GCS was 6.72. In assay [2], the “Percent change in enzyme activity at test concentration 0.37 μM” value amounted to 214%, the “Percent change in enzyme activity at test concentration 1.1 μM” value turned out to be 248%, the “Percent change in enzyme activity at test concentration 3.3 μM” value was 259% and the “Percent change in enzyme activity at test concentration 10 μM” value is on record as 284%. In addition, the “Percent change in enzyme activity at test concentration […]” value (from here on “Percent change in enzyme activity … […]”) in assay [2] is given as 160%.
Regarding `O[C@H]1[C@H](O)[C@@H](O)CN(CCCC[C@H](F)COCc2csc(-c3ccc(F)cc3)n2)C[C@@H]1O` (single isomer, unassigned) [Example 74], the pIC50 on human GBA2 was < 5.00. In assay [1], the pIC50 was 5.77. Also, the pIC50 on Human GCS is 7.52. In assay [2], the “Percent change in enzyme activity at test concentration 0.37 μM” value is 150%, the “Percent change in enzyme activity at test concentration 1.1 μM” value was determined as 185%, the “Percent change in enzyme activity at test concentration 3.3 μM” value came out at 193% and the “Percent change in enzyme activity at test concentration 10 μM” value is listed as 216%. Further, the “Percent change in enzyme activity … […]” value in assay [2] is on record as 96%.
Take `Cc1nc(COC[C@@H](F)CCCCN2C[C@H](O)[C@@H](O)[C@H](O)[C@@H](O)C2)c(-c2cc(F)cc(F)c2)o1` (single isomer, unassigned) [Example 100]: in assay [2], the “Percent change in enzyme activity at test concentration 0.37 μM” value turned out to be 147%, the “Percent change in enzyme activity at test concentration 1.1 μM” value is 145%, the “Percent change in enzyme activity at test concentration 3.3 μM” value is reported as 163% and the “Percent change in enzyme activity at test concentration 10 μM” value stood at 169%. For the same compound, the “Percent change in enzyme activity … […]” value in assay [2] is listed as 142%.
Take `CCc1ccc(COC[C@@H](F)CCCCN2C[C@H](O)[C@@H](O)[C@H](O)[C@@H](O)C2)cc1` (single isomer, unassigned) [Example 101]: at human GBA2, the negative logarithm of the IC50 (pIC50) was < 5.00. In assay [1], the negative-log IC50 (pIC50) is 5.96. Also, the negative logarithm of the IC50 (pIC50) at Human GCS is 6.77. Further, in assay [2], the “Percent change in enzyme activity at test concentration 0.37 μM” value is recorded as 157%, the “Percent change in enzyme activity at test concentration 1.1 μM” value was 209%, the “Percent change in enzyme activity at test concentration 3.3 μM” value is 219% and the “Percent change in enzyme activity at test concentration 10 μM” value was 227%. In addition, the “Percent change in enzyme activity … […]” value in assay [2] was determined as 157%.
As to `O[C@H]1[C@H](O)[C@@H](O)CN(CCCC[C@H](F)COCc2ccc(Cl)cc2)C[C@@H]1O` (single isomer, unassigned) [Example 107], the pIC50 at human GBA2 is < 5.00. In addition, the negative-log IC50 (pIC50) in assay [1] was 5.92. At Human GCS, the negative logarithm of the IC50 (pIC50) is 6.89. Besides, in assay [2], the “Percent change in enzyme activity at test concentration 0.37 μM” value stood at 110%, the “Percent change in enzyme activity at test concentration 1.1 μM” value stood at 141%, the “Percent change in enzyme activity at test concentration 3.3 μM” value worked out at 157% and the “Percent change in enzyme activity at test concentration 10 μM” value is given as 199%. Also, the “Percent change in enzyme activity … […]” value in assay [2] is 109%.
On to `Cc1ccc(COC[C@@H](F)CCCCN2C[C@H](O)[C@@H](O)[C@H](O)[C@@H](O)C2)cc1` (single isomer, unassigned) [Example 135], for which the negative logarithm of the IC50 (pIC50) on human GBA2 is < 5.00. In addition, the pIC50 in assay [1] is 5.49. Further, the negative logarithm of the IC50 (pIC50) on Human GCS was 6.17. Further, in assay [2], the “Percent change in enzyme activity at test concentration 0.37 μM” value is reported as 108%, the “Percent change in enzyme activity at test concentration 1.1 μM” value came out at 127%, the “Percent change in enzyme activity at test concentration 3.3 μM” value was determined as 153% and the “Percent change in enzyme activity at test concentration 10 μM” value stood at 191%. Also, the “Percent change in enzyme activity … […]” value in assay [2] is 102%.
Consider `O[C@H]1[C@H](O)[C@@H](O)CN(CCCC[C@H](F)COCc2ccc(-c3cc(F)cc(F)c3)nn2)C[C@@H]1O` (single isomer, unassigned) [Example 139], for which the negative logarithm of the IC50 (pIC50) on human GBA2 was < 5.00. Moreover, the pIC50 in assay [1] is 5.29. For the same compound, the pIC50 on Human GCS is 6.66. Further, in assay [2], the “Percent change in enzyme activity at test concentration 0.37 μM” value was 119%, the “Percent change in enzyme activity at test concentration 1.1 μM” value is given as 154%, the “Percent change in enzyme activity at test concentration 3.3 μM” value worked out at 157% and the “Percent change in enzyme activity at test concentration 10 μM” value was 204%. Moreover, the “Percent change in enzyme activity … […]” value in assay [2] came to 115%.
As for `Cc1ccc(COCCCCCCN2C[C@H](O)[C@@H](O)[C@H](O)[C@@H](O)C2)cc1` [Example 1, (3S,4R,5R,6S)-1-{6-[(4-methylbenzyl)oxy]hexyl}-3,4,5,6-azepanetetrol], the pIC50 on human GBA2 is < 5.00. Further, in assay [1], the pIC50 was 5.29. At Human GCS, the pIC50 is 5.70. In addition, in assay [2], the “Percent change in enzyme activity at test concentration 0.37 μM” value was found to be 166%, the “Percent change in enzyme activity at test concentration 1.1 μM” value is recorded as 200%, the “Percent change in enzyme activity at test concentration 3.3 μM” value is 221% and the “Percent change in enzyme activity at test concentration 10 μM” value was found to be 230%. Also, in assay [2], the “Percent change in enzyme activity … […]” value was found to be 155%.
Regarding `O[C@H]1[C@H](O)[C@@H](O)CN(CCCCCCOCc2csc(-c3cc(F)cc(F)c3)n2)C[C@@H]1O` [Example 21, (3S,4R,5R,6S)-1-(6-{[2-(3,5-difluorophenyl)-1,3-thiazol-4-yl]methoxy}hexyl)-3,4,5,6-azepanetetrol], the negative logarithm of the IC50 (pIC50) is < 5.00 at human GBA2, 5.62 in assay [1] and 7.22 on Human GCS.
